The values that follow come from ChEMBL document CHEMBL4385653, “Design, synthesis, biological evaluation of benzoyl amide derivatives containing nitrogen heterocyclic ring as potential VEGFR-2 inhibitors” (Bioorg Med Chem, 2019).

Data set [1] concerns the target Fibroblast growth factor receptor 1 (Homo sapiens, UniProt P11362). Put plainly: Inhibition of bFGFR (unknown origin) incubated for 30 mins by enzyme immunoassay.
Another data set relates to HeLa. Put plainly: Antiproliferative activity against human HeLa cells assessed as inhibition of cell proliferation incubated for 48 hrs by MTT assay. It is filed as functional, cell-based.
For data set [2], the target named is Vascular endothelial growth factor receptor 2 (Homo sapiens, UniProt P35968). Put plainly: Inhibition of VEGFR2 (unknown origin) incubated for 30 mins by enzyme immunoassay.
Sequence of Vascular endothelial growth factor receptor 2 (P35968 whole entry): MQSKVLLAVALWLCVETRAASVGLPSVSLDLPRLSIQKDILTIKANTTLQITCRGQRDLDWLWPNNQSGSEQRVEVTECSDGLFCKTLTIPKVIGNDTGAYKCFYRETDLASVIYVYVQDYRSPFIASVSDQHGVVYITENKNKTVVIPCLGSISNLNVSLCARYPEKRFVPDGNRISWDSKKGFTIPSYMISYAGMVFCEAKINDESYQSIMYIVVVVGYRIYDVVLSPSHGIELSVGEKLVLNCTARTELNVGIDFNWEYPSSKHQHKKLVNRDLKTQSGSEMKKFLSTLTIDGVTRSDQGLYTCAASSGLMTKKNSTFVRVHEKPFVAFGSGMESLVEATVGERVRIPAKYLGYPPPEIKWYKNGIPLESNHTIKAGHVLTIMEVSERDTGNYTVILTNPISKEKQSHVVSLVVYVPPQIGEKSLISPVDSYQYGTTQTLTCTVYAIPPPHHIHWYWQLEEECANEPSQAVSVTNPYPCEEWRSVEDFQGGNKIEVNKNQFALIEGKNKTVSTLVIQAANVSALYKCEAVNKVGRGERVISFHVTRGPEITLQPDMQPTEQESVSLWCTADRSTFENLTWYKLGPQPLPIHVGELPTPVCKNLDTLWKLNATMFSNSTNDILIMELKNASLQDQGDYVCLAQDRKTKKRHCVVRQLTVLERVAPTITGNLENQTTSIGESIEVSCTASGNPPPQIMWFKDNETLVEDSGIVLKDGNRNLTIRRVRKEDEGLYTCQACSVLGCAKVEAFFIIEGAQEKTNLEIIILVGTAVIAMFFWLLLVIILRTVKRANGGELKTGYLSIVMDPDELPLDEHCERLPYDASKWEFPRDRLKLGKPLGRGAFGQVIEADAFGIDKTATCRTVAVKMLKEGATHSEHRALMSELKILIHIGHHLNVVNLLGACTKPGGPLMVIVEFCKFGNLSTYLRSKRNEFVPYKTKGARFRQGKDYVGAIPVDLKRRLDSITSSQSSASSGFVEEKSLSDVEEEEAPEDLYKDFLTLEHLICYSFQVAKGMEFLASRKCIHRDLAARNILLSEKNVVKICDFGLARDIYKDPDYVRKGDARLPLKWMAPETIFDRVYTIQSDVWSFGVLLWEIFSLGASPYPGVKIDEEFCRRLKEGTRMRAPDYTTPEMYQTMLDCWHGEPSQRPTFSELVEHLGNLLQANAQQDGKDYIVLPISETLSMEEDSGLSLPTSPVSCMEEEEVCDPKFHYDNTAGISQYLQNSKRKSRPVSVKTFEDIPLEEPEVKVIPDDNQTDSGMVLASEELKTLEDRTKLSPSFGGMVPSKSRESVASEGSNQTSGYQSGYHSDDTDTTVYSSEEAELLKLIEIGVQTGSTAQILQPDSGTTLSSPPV
Data set [3] addresses Epidermal growth factor receptor (Homo sapiens, UniProt P00533). As to the kind of experiment: Inhibition of EGFR (unknown origin) incubated for 30 mins by enzyme immunoassay.
In another data set the test system is HepG2. Put plainly: Antiproliferative activity against human HepG2 cells assessed as inhibition of cell proliferation incubated for 48 hrs by MTT assay. It is filed as functional, cell-based. Particulars: HepG2, 48 h. For orientation: Tetrazolium dyes change colour on reduction, which living cells bring about.
The test system of the next data set is A549. As to the kind of experiment: Antiproliferative activity against human A549 cells assessed as inhibition of cell proliferation incubated for 48 hrs by MTT assay. It counts as functional, cell-based. Particulars: A549, 48 h.
Data set [4] has as its system MCF7. As to the kind of experiment: Antiproliferative activity against human MCF7 cells assessed as inhibition of cell proliferation incubated for 48 hrs by MTT assay. It counts as functional, cell-based. The conditions noted are these: MCF7, 48 h.
Data set [5] is described as follows: Inhibition of PDGFR (unknown origin) incubated for 30 mins by enzyme immunoassay. Details: species or system Homo sapiens.
For data set [6], the system named is MCF7. Put plainly: Induction of apoptosis in human MCF7 cells incubated for 24 hrs by Annexin V-FITC/PI double staining based flow cytometry analysis. It is filed as functional, cell-based.
Data set [7] can be described thus: Cytotoxicity in HEK293T cells assessed as reduction in cell viability incubated for 48 hrs by MTT assay. It is filed as cell-based, HEK-293T. The conditions noted are these: human.

Sequence of Epidermal growth factor receptor (P00533 whole entry): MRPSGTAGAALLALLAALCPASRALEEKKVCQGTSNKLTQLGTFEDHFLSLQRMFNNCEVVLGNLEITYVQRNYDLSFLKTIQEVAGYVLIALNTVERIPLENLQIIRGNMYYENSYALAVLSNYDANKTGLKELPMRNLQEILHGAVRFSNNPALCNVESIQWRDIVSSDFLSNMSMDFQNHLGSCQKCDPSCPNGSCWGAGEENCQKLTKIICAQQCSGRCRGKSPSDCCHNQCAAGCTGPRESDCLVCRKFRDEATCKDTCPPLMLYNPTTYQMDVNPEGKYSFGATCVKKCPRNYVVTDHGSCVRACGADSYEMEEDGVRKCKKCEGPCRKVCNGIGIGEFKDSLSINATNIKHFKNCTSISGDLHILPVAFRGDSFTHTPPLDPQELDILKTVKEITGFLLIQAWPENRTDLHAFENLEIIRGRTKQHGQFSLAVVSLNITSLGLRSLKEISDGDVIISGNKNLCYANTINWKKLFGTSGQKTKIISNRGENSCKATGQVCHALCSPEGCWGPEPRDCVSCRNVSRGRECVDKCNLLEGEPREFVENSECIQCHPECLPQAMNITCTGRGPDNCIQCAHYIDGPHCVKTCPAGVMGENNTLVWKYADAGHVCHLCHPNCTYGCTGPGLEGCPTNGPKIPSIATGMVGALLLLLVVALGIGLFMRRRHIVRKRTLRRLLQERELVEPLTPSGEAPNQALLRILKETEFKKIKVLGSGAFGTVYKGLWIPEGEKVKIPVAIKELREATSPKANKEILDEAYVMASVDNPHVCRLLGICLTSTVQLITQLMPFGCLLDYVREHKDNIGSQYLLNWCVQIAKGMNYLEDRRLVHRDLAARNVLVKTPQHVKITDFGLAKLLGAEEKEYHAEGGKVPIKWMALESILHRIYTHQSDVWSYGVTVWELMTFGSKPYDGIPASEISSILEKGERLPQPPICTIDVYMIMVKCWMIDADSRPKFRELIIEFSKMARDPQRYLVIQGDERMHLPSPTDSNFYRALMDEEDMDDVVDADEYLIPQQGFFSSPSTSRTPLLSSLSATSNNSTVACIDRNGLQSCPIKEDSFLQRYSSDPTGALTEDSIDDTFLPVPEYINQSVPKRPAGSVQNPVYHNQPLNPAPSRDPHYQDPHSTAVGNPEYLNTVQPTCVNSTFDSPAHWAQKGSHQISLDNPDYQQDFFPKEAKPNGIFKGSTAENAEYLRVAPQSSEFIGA
Sequence of Fibroblast growth factor receptor 1 (P11362 whole entry): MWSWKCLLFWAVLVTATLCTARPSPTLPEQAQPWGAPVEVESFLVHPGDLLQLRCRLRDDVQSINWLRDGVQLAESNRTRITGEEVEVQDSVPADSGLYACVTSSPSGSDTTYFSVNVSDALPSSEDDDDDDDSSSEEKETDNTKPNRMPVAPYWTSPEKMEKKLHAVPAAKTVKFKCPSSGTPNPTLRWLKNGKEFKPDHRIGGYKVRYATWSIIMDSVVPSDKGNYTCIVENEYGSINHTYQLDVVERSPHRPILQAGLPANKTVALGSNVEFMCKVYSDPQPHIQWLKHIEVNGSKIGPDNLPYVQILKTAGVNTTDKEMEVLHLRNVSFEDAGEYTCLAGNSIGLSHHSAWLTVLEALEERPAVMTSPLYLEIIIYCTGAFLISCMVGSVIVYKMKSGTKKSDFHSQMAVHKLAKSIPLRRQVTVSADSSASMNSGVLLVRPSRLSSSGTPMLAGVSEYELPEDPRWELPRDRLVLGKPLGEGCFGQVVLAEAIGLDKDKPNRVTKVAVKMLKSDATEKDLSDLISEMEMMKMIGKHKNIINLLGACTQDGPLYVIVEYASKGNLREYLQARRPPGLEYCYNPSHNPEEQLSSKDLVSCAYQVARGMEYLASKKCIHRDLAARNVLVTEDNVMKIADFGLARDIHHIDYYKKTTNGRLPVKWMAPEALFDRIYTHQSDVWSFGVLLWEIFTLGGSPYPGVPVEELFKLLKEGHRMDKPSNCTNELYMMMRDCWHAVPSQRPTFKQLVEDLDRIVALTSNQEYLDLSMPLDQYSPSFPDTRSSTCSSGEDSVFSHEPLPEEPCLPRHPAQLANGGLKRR

For `COc1ccc(-n2cc(NC(=O)c3ccc(NS(=O)(=O)c4ccccc4)cc3)cn2)cc1`, the IC50 in [1] worked out at 45.3 µM; in the data set on HeLa, 47.2 µM; in data set [2] it was 14.5 µM; in [3], 26.1 µM; in the data set on HepG2, 57.3 µM; with A549 it was 85.8 µM. The IC50 in the data set on MCF7 [4] is 25.6 µM; in data set [5], 36.8 µM.
As for `COc1cc2/c(=N/c3ccc(Br)cc3F)nc[nH]c2cc1OCC1CCN(C)CC1` [VANDETANIB], the concentration for half-maximal inhibition (IC50) in the data set on HeLa worked out at 6.57 µM; in the data set with HepG2, 2.46 µM; with A549 it was 18.2 µM; in the data set with MCF7 [4], 1.4 µM; in data set [5], 1.33 µM. Besides, the Activity entry with MCF7 [6] was “Dose-dependent effect”.
Turning to `Cc1ccc(-n2cc(NC(=O)c3ccc(NS(=O)(=O)c4ccc(Cl)cc4)cc3)cn2)cc1`, the IC50 in data set [1] was found to be 16.2 µM; in the data set with HeLa, 8.01 µM; in data set [2] it was 2.88 µM; in data set [3], 12.4 µM; in the data set on HepG2, 9.72 µM; in the data set on A549, 22 µM. Moreover, the 50% inhibitory concentration (IC50) with MCF7 [4] was determined as 3.99 µM; in data set [5], 15.8 µM. Also, the CC50 at 48 h in data set [7] was 138 µM.
As to `O=C(Nc1cnn(-c2ccccc2)c1)c1cccc(NS(=O)(=O)c2ccc(Cl)cc2)c1`, the IC50 in data set [1] turned out to be 18.5 µM; with HeLa, 5.41 µM; in [2], 2.39 µM; in [3], 10.6 µM; with HepG2, 8.54 µM; in the data set on A549 it was 19.3 µM. Besides, the IC50 in the data set with MCF7 [4] came out at 3.13 µM; in data set [5], 17.6 µM. The CC50 at 48 h in data set [7] was found to be 120 µM.
Take `Cc1ccc(-n2cc(NC(=O)c3ccc(NS(=O)(=O)c4ccccc4)cc3)cn2)cc1`: the 50% inhibitory concentration (IC50) was determined as 28.1 µM in data set [1]; 27.9 µM in the data set on HeLa; 6.85 µM in data set [2]; 18.3 µM in data set [3]; 18.1 µM in the data set with HepG2; 54.7 µM in the data set with A549. The IC50 in the data set on MCF7 [4] was 10.9 µM; in data set [5], 26 µM. Also, in data set [7], the CC50 at 48 h came to 107 µM.
Take `O=C(Nc1cnn(-c2ccccc2)c1)c1cccc(NS(=O)(=O)c2ccccc2)c1`: the IC50 in data set [1] was determined as 18.2 µM; with HeLa, 15.3 µM; in [2], 3.26 µM; in data set [3] it was 15.4 µM; in the data set with HepG2, 10.1 µM; in the data set with A549, 26.8 µM. Moreover, the IC50 with MCF7 [4] worked out at 4.32 µM; in data set [5] it was 18.6 µM. In addition, the CC50 at 48 h in data set [7] was 110 µM.
For the compound `Cc1ccc(-n2cc(NC(=O)c3cccc(NS(=O)(=O)c4ccccc4)c3)cn2)cc1`, the IC50 in [1] came out at 16.2 µM; in the data set with HeLa, 3.12 µM; in data set [2], 0.58 µM; in data set [3] it was 9.57 µM; with HepG2 it was 6.05 µM; with A549 it was 18.9 µM. For the same compound, the IC50 turned out to be 1.69 µM in the data set on MCF7 [4] and 15.7 µM in data set [5]. Further, in [7], the CC50 at 48 h came to 93.8 µM.
For the compound `COc1ccc(-n2cc(NC(=O)c3cccc(NS(=O)(=O)c4ccccc4)c3)cn2)cc1`, the IC50 in [1] turned out to be 37 µM; in the data set on HeLa it was 42.2 µM; in data set [2] it was 10.4 µM; in [3], 27 µM; with HepG2 it was 35.7 µM; in the data set on A549 it was 76.8 µM. For the same compound, the half-inhibitory concentration (IC50) with MCF7 [4] is 18.7 µM; in [5] it was 38.5 µM.
Take `COc1cc2c(Nc3ccc(Br)cc3F)ncnc2cc1OCC1CCN(C)CC1` [VANDETANIB]: the CC50 at 48 h in data set [7] was 172 µM.
Take `O=C(Nc1cnn(-c2ccccc2)c1)c1ccc(NS(=O)(=O)c2ccc(Cl)cc2)cc1`: the half-inhibitory concentration (IC50) was found to be 21.6 µM in [1]; 18.4 µM in the data set with HeLa; 3.71 µM in data set [2]; 15.2 µM with HepG2; 33.9 µM with A549; 5.25 µM in the data set on MCF7 [4]. Also, in data set [5], the midpoint of inhibition, the IC50, lay at 19.4 µM. For the same compound, the CC50 at 48 h in data set [7] turned out to be 125 µM.
On to `Cn1cc(NC(=O)c2cccc(NS(=O)(=O)c3ccccc3)c2)cn1`, for which the IC50 in data set [1] was 57.1 µM; in the data set with HeLa, 78.5 µM; in data set [2], 20.4 µM; in data set [3], 34.3 µM; in the data set with HepG2, 85.3 µM; in the data set on A549, more than 100 µM. Moreover, the figures for the IC50 (in the data set on MCF7 [4]; in data set [5]) were 41.2 µM and 41.6 µM, respectively.
For `COc1ccc(-n2cc(NC(=O)c3ccc(NS(=O)(=O)c4ccc(Cl)cc4)cc3)cn2)cc1`, the 50% inhibitory concentration (IC50) in data set [1] was 26.5 µM; in the data set with HeLa, 25.2 µM; in [2], 7.16 µM; in data set [3] it was 16.2 µM; in the data set on HepG2 it was 19.1 µM; in the data set on A549 it was 61 µM. The IC50 was determined as 15.6 µM with MCF7 [4] and 26.5 µM in data set [5].
Regarding `COc1ccc(-n2cc(NC(=O)c3cccc(NS(=O)(=O)c4ccc(Cl)cc4)c3)cn2)cc1`, the half-inhibitory concentration (IC50) turned out to be 25.5 µM in data set [1]; 19.7 µM with HeLa; 5.15 µM in [2]; 15.3 µM in data set [3]; 15.2 µM in the data set with HepG2; 29.7 µM with A549. The IC50 with MCF7 [4] came to 8.72 µM; in data set [5], 21.7 µM. In data set [7], the CC50 at 48 h was determined as 89.8 µM.
On to `Cn1cc(NC(=O)c2ccc(NS(=O)(=O)c3ccccc3)cc2)cn1`, for which the IC50 in data set [1] was 62.1 µM; in the data set on HeLa it was 92.8 µM; in data set [2], 25.2 µM; in [3], 36.8 µM; in the data set with HepG2, more than 100 µM; in the data set with A549 it was more than 100 µM. Further, the IC50 was 58.7 µM with MCF7 [4] and 42.6 µM in data set [5].
As to `Cn1cc(NC(=O)c2cccc(NS(=O)(=O)c3ccc(Cl)cc3)c2)cn1`, the IC50 in [1] is 58.9 µM; in the data set on HeLa, 63 µM; in data set [2] it was 17.4 µM; with HepG2, 82.7 µM; in the data set on A549, more than 100 µM; in the data set with MCF7 [4], 32.3 µM. The compound also registered an IC50 in [5] of 39.9 µM.
Turning to `COc1cccc(-n2cc(NC(=O)c3ccc(NS(=O)(=O)c4ccccc4)cc3)cn2)c1`, the IC50 in data set [1] is 47.5 µM; with HeLa, 66.2 µM; in [2] it was 16.2 µM; in data set [3], 24.1 µM; with HepG2, 64.2 µM; in the data set on A549, more than 100 µM. Further, the results for the IC50 (with MCF7 [4]; in [5]) were 28.4 µM and 39.5 µM, respectively.
With `O=C(Nc1cnn(-c2ccccc2)c1)c1ccc(NS(=O)(=O)c2ccccc2)cc1`, the 50% inhibitory concentration (IC50) in [1] came to 35.9 µM; in the data set with HeLa, 37.1 µM; in data set [2], 10.1 µM; in data set [3], 25.4 µM; in the data set with HepG2, 21.5 µM; in the data set with A549 it was 87.1 µM. The IC50 is 17.1 µM in the data set on MCF7 [4] and 34.6 µM in data set [5].
As for `COc1cccc(-n2cc(NC(=O)c3cccc(NS(=O)(=O)c4ccc(Cl)cc4)c3)cn2)c1`, the IC50 in [1] was determined as 22.2 µM; in the data set on HeLa it was 25 µM; in data set [2], 5.97 µM; in [3], 15.6 µM; in the data set on HepG2, 19.6 µM; in the data set with A549, 44.4 µM. Moreover, the results for the 50% inhibitory concentration (IC50) (in the data set on MCF7 [4]; in [5]) were 9.43 µM and 24.4 µM, respectively. Moreover, the CC50 at 48 h in [7] worked out at 133 µM.
In the case of `COc1cccc(-n2cc(NC(=O)c3cccc(NS(=O)(=O)c4ccccc4)c3)cn2)c1`, the IC50 in data set [1] worked out at 33.5 µM; with HeLa, 26.2 µM; in data set [2], 9.22 µM; in [3] it was 22.9 µM; in the data set with HepG2, 25 µM; in the data set on A549, 81.1 µM. Besides, the IC50 with MCF7 [4] was determined as 16.7 µM; in data set [5], 27.8 µM.

Broadly, the IC50 is the point on the concentration scale where inhibition reaches its midpoint. By CC50 is commonly meant the concentration giving 50% cytotoxicity.
